Source: PubChem BioAssay AID1919017 (Molecular Pharmacology Branch, DTP, NCI, 2023)
Where “and” joins values, the source holds several entries; their conditions need not be identical. Identical values can stand only once.

System: SW1271 complex spheroids with HUVEC/MSC, growth, % test/control
Test: Anticancer human tumor SW1271 cell line growth inhibition [AhR];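 note: spheroids exposed to agents for 7 days before readout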
Conditions: for viability, T/C: stronger effect = lower value
Source text: Multicellular complex tumor spheroid response to aryl hydrocarbon receptor antagonists in combination with a variety of drugs and investigational agents in selected tumor cell lines
The current study was undertaken to assess response to aryl hydrocarbon receptor antagonists in combination with standard-of-care drugs and investigational agents in solid tumor complex spheroid models. Complex spheroids include a stromal component modeled by human endothelial cells (HUVEC) and fibroblasts modeled by human mesenchymal stem cells (MSCs). The concentration ranges selected for each drug and investigational agent were based upon clinically achievable concentrations if the clinical Cmax of the agent was known.
Compounds. The drugs and investigational agents: BAY 2416964 (NSC825713), GNF351 (NSC835774), CH-223191 (NSC835775), CPI-455 (NSC825282), aza-TdCyd (NSC777586), decitabine (NSC127716), belinostat (NSC758774), entinostat (NSC756642), pevonedistat (NSC761192), tazemetostat (NSC777109), talazoparib (NSC765396), olaparib (NSC753686), selinexor (NSC780203), nedisertib (M3814, NSC802822), bortezomib (NSC756655), venetoclax (NSC766270), doxorubicin (NSC123127), elimusertib (BAY189344, NSC800525), ceralasertib (AZD6738, NSC777638), TAK-243 (NSC785004), alisertib (NSC759677), etoposide (NSC141540), topotecan (NSC609699), eribulin (NSC707389), gemcitabine (NSC613327), carboplatin (NSC241240), cisplatin (NSC119875), and SN-38 (NSC673596) were obtained from the National Cancer Institute (NCI) Developmental Therapeutics Program Chemical Repository (32). The FDA-approved anticancer drug set is available from the Developmental Therapeutics Program at https://dtp.cancer.gov/organization/dscb/obtaining/available plates.htm. […] The stock solutions were prepared in dimethyl sulfoxide (DMSO, Sigma-Aldrich, St. Louis, MO, cat. D2650), except for the platinum compounds which were prepared in saline (Quality Biological, Gaithersburg, MD, cat. 114-055-101), at 800-fold the tested concentration and stored at -70 degrees C prior to their use. All drugs and investigational agents were tested over a range starting from a high concentration at or near the clinical Cmax and decreasing in half-log increments. If the clinical Cmax for an agent had not been determined, the highest concentration tested was 10 microM (Table 1).
Cell Culture. All cells were maintained in an incubator at 37 degrees C and 5% CO2 with 95% humidity. The PDC lines were cultured according to standard operating procedures established by the NCI PDMR (https://pdmr.cancer.gov). Briefly, all PDCs were thawed and cultured in Matrigel-coated flasks prepared with a working solution of 1X Ham's F-12 nutrient mix, without supplementation (Invitrogen, Waltham, MA, cat. 11765054), 100 U/mL penicillin-streptomycin (Invitrogen, cat. 15140122), and 2.5% Matrigel (Corning Inc., Corning, NY, cat. 354248) for the first three passages. All PDCs were cultured in complete DMEM/F-12 media containing advanced DMEM/F-12 (Invitrogen, cat. 12634028), 4.9% defined fetal bovine serum, heat inactivated (HyClone Laboratories Inc., Logan, UT, cat. SH30070.03HI), 389 ng/mL hydrocortisone (Sigma-Aldrich, cat. H4001), 9.7 ng/mL human EGF recombinant protein (Invitrogen, cat. PHG0313), 23.4 microg/mL adenine (Sigma-Aldrich, cat. A2786), 97.3 U/mL penicillin-streptomycin (Invitrogen, cat. 15140122), 1.9 mM L-glutamine (Invitrogen, cat. 25030081), and 9.7 microM Y-27632 dihydrochloride (Tocris Bioscience, Bristol, United Kingdom, cat. 1254). The PDCs were cultured in complete DMEM/F12 media without 10 microM Y-27632 dihydrochloride for at least two passages prior to the screen. The established cell lines NCI-H1341 and […] were cultured in DMEM/F-12, HEPES (Invitrogen, cat. 11330032), 5% defined fetal bovine serum (HyClone Laboratories Inc., cat. SH30070.03), ITS premix universal culture supplement [insulin (5 microg/mL), transferrin (5 microg/mL), and selenious acid (5 ng/mL)] […]

| SMILES | IC50 (curve of compound) | viability, T/C (compound 0.0316 µM) | viability, T/C (compound 0.1 µM) | viability, T/C (compound 0.316 µM) | viability, T/C (compound 1 µM) | viability, T/C (compound 3.16 µM) | viability, T/C (compound 10 µM) | further results |
| --- | --- | --- | --- | --- | --- | --- | --- | --- |
| CC(C)CC(NC(=O)C(Cc1ccccc1)NC(=O)c1cnccn1)B(O)O (stereo unspecified) | 5.23 nM and 5.07 nM and 4.06 nM |  |  |  |  |  |  | viability, T/C (compound 0.000949 µM): 97.1% and 109% and 95.8%; viability, T/C (compound 0.003 µM): 89.3% and 86% and 67.3%; viability, T/C (compound 0.00949 µM): 7.81% and 7.15% and 1.46%; viability, T/C (compound 0.03 µM): 0.75% and 0.78% and 0.59%; viability, T/C (compound 0.0949 µM): 0.47% and 0.58% and 0.43%; viability, T/C (compound 0.3 µM): 0.64% and 0.89% and 0.44% |
| CC(C)c1c(-c2ccccc2)nc2c(C#N)c[nH]n2c1=O | > 10000 nM | 110% and 109% and 85.9% | 81.4% and 104% and 86.4% | 121% and 91.8% and 104% | 101% and 92.5% and 93.3% | 110% and 91.8% and 94% | 107% and 91.7% and 85.8% |  |
| CC(CO)NC(=O)c1cc(-c2ccc(Cl)cc2)nn(-c2cnn(C)c2)c1=O (stereo unspecified) |  |  | 94.2% [middle of 20 runs] |  |  |  |  | IC50 (compound alone, run of 08/08/2022): > 10000 nM |
| CC1(C)CCC(CN2CCN(c3ccc(C(=O)NS(=O)(=O)c4ccc(NCC5CCOCC5)c([N+](=O)[O-])c4)c(Oc4cnc5[nH]ccc5c4)c3)CC2)=C(c2ccc(Cl)cc2)C1 | > 10000 nM | 93.6% and 94.9% and 90.9% | 107% and 101% and 97.1% | 104% and 75% and 108% | 92.9% and 102% and 94.2% | 101% and 110% and 105% | 88% and 72.9% and 74.4% |  |
| CC1COCCN1c1cc(-c2ccnn2C)c2ccnc(-c3ccn[nH]3)c2n1 (stereo unspecified) | 294 nM and > 1000 nM and 712 nM | 76.6% and 71.1% and 85.7% | 58.4% and 65.3% and 70.1% | 51.8% and 61.9% and 60.3% | 43.8% and 46.2% and 45.5% |  |  | viability, T/C (compound 0.00316 µM): 95.8% and 99.2% and 91%; viability, T/C (compound 0.01 µM): 90.6% and 102% and 103% |
| CC1COCCN1c1cc(C2(S(C)(=N)=O)CC2)nc(-c2ccnc3[nH]ccc23)n1 (stereo unspecified) | > 10000 nM | 106% and 99.7% and 91.9% | 85.4% and 106% and 103% | 87.8% (2×) and 79.2% | 77.5% and 84% and 73.8% | 80.1% and 69.6% and 68.8% | 59.5% and 70.1% and 51.9% |  |
| CCN(c1cc(-c2ccc(CN3CCOCC3)cc2)cc(C(=O)NCc2c(C)cc(C)[nH]c2=O)c1C)C1CCOCC1 | > 3000 nM |  |  |  |  |  |  | viability, T/C (compound 0.00949 µM): 104% and 90.3% and 94.7%; viability, T/C (compound 0.03 µM): 96.7% and 99.1% and 104%; viability, T/C (compound 0.0949 µM): 86.3% and 110% and 120%; viability, T/C (compound 0.3 µM): 93.2% and 124% and 111%; viability, T/C (compound 0.949 µM): 90.6% and 106% and 125%; viability, T/C (compound 3 µM): 102% and 115% and 107% |
| CC[C@@]1(O)C(=O)OCc2c1cc1n(c2=O)Cc2cc3c(CN(C)C)c(O)ccc3nc2-1 | > 100 nM and 75.4 nM | 89% and 65% and 78.6% | 74.6% and 45.2% and 70% |  |  |  |  | viability, T/C (compound 0.000316 µM): 105% and 80.9% and 102%; viability, T/C (compound 0.001 µM): 108% and 64.1% and 91.1%; viability, T/C (compound 0.00316 µM): 80.9% and 87% and 83.4%; viability, T/C (compound 0.01 µM): 91.5% and 70% and 96.8% |
| CCc1c2c(nc3ccc(O)cc13)-c1cc3c(c(=O)n1C2)COC(=O)[C@]3(O)CC | 177 nM and > 300 nM |  |  |  |  |  |  | viability, T/C (compound 0.000949 µM): 78.1% and 88.3% and 86.2%; viability, T/C (compound 0.003 µM): 79.8% and 97.7% and 79%; viability, T/C (compound 0.00949 µM): 64.6% and 71.7% and 61.4%; viability, T/C (compound 0.03 µM): 67% and 58.3% and 59.9%; viability, T/C (compound 0.0949 µM): 55.6% and 56% and 60.6%; viability, T/C (compound 0.3 µM): 44.9% and 53.3% and 49.2% |
| COc1cc(C2c3cc4c(cc3C(OC3OC5COC(C)OC5C(O)C3O)C3COC(=O)C23)OCO4)cc(OC)c1O (stereo unspecified) |  | 81.3% and 81.6% and 96.4% | 82.5% and 92.6% and 64.2% | 63.9% and 54.3% and 41.1% | 61.9% and 51% and 46.1% | 60.1% and 72.8% and 44.8% | 50.8% and 45.9% and 39.2% |  |
| COc1cc(Nc2ncc3c(n2)-c2ccc(Cl)cc2C(c2c(F)cccc2OC)=NC3)ccc1C(=O)O | 7650 nM and > 10000 nM | 80.7% and 65.3% and 70.4% | 91.2% and 67.1% and 74.3% | 92.5% and 67% and 66.7% | 83.3% and 64.7% and 68.1% | 72.4% and 61.5% and 57.6% | 43.3% and 49% and 51.4% |  |
